Experimental data as given in patent US8466089B2, “Pyrazole compounds, process for their production and herbicides containing them” (Ishihara Sangyo Kaisha, Ltd., priority 2008, dated 2013).

Assays:
Format in all cases: in vivo
[1] = system: barnyardgrass (Echinochloa oryzicola vasing.); assay: Test Example 3, paddy field pot, application to irrigated water; conditions: applied at 0.5 leaf stage, 13th to 17th day after application, read-out: Growth inhibition rate (%) barnyard grass
Excerpt: (§1) Paddy field soil was put into a 1/1,000,000 hectare pot, and seeds of barnyardgrass (Echinochloa oryzicola vasing.) and Japanese bulrush (Scirpus juncoides) were sown and lightly covered with soil. Then, pot was left to stand in a greenhouse in a state irrigated to a water depth of from 0.5 to 1 cm, and next day or two days later, tubers of Japanese ribbon waparo (Sagittaria pygmaea) were planted. Then, the irrigated water depth was maintained to be from 3 to 4 cm, and when barnyardgrass and Japanese bulrush reached 0.5 leaf stage, and Japanese ribbon waparo reached primary leaf stage, a water diluted solution of a wettable powder or an emulsifiable concentrate of the compound of the present invention prepared in accordance with a conventional preparation method, was uniformly dropwise applied by a pipette so that the amount of active ingredients would be a prescribed amount. Further, paddy field soil was put into a 1/1,000,000 pot, followed by soil puddling to an irrigated water depth of from 3 to 4 cm. Next day, rice (Oryza sativa L.) (var.: Nihonbare) of two leaf stage was transplanted in a transplantation depth of 3 cm. On the 4th day after transplantation, the compound of the present invention was applied in the same manner as described above.
(§2) On the 13th to 17th day after application, the state of growth of barnyardgrass, Japanese bulrush and Japanese ribbon waparo was visually observed, and on the 20th to 23rd day after application, the state of growth of rice was visually observed, and the herbicidal effect was evaluated by a growth inhibition rate (%) of 0 (equivalent to the non-treated area) to 100% (complete kill).

[2] = system: Japanese bulrush (Scirpus juncoides); assay: as above; conditions: Schoenoplectiella juncoides, applied at 0.5 leaf stage, 13th to 17th day after application, read-out: Growth inhibition rate (%) Japanese bulrush
Excerpt: as §1, §2

[3] = system: Japanese ribbon waparo (Sagittaria pygmaea); assay: as above; conditions: applied at primary leaf stage, 13th to 17th day after application, read-out: Growth inhibition rate (%) Japanese ribbon waparo
Excerpt: as §1, §2

[4] = system: rice (Oryza sativa L.) (var.: Nihonbare); assay: Test Example 3, paddy field pot, transplanted rice; conditions: applied 4th day after transplantation, 20th to 23rd day after application, read-out: Growth inhibition rate (%) Rice
Excerpt: as §1, §2

[5] = system: green foxtail (Setaria viridis L.); assay: Test Example 2, soil application on the day after sowing; conditions: 21st to 22nd day after application, visual, read-out: Growth inhibition rate (%) Green foxtail
Excerpt: (§3) Upland field soil was put into a 1/170,000 hectare pot, and seeds of various plants (barnyardgrass (Echinochloa crus-galli L.), crabgrass (Digitaria sanquinalis L.), green foxtail (Setaria viridis L.), redroot pigweed (Amaranthus retroflexus L.), prickly sida (Sida spinosa L.), velvetleaf (Abutilon theophrasti MEDIC.), rice (Oryza sativa L.), corn (Zea mays L.), soybean (Glycine max Merr.)) and wheat (Triticum spp.) were sown. On the day after sowing, wettable powders or emulsifiable concentrates of the compounds of the present invention prepared in accordance with a conventional preparation method, were weighed so that the active ingredients became the prescribed amounts, and diluted with water in an amount corresponding to 500 liter per 1 hectare, followed by soil application with a small sprayer.
(§4) On the 21st to 22nd day after the application, the state of growth of the respective plants was visually observed, and the herbicidal effect was evaluated by a growth inhibition rate (%) of from 0 (equivalent to the non-treated area) to 100% (complete kill).

rice (Oryza sativa L.) = assay: as above; conditions: 21st to 22nd day after application, visual, read-out: Growth inhibition rate (%) Rice
Excerpt: as §3, §4

[6] = system: redroot pigweed (Amaranthus retroflexus L.); assay: as above; conditions: 21st to 22nd day after application, visual, read-out: Growth inhibition rate (%) Redroot pigweed
Excerpt: as §3, §4

[7] = system: soybean (Glycine max Merr.); assay: as above; conditions: 21st to 22nd day after application, visual, read-out: Growth inhibition rate (%) Soybean
Excerpt: as §3, §4

[8] = system: crabgrass (Digitaria sanquinalis L.); assay: as above; conditions: 21st to 22nd day after application, visual, read-out: Growth inhibition rate (%) Crabgrass
Excerpt: as §3, §4

[9] = system: velvetleaf (Abutilon theophrasti MEDIC.); assay: as above; conditions: 21st to 22nd day after application, visual, read-out: Growth inhibition rate (%) Velvetleaf
Excerpt: as §3, §4

[10] = system: barnyardgrass (Echinochloa crus-galli L.); assay: as above; conditions: 21st to 22nd day after application, visual, read-out: Growth inhibition rate (%) Barnyardgrass
Excerpt: as §3, §4

corn (Zea mays L.) = assay: as above; conditions: 21st to 22nd day after application, visual, read-out: Growth inhibition rate (%) Corn
Excerpt: as §3, §4

wheat (Triticum spp.) = assay: as above; conditions: 21st to 22nd day after application, visual, read-out: Growth inhibition rate (%) Wheat
Excerpt: as §3, §4

[11] = system: prickly sida (Sida spinosa L.); assay: as above; conditions: 21st to 22nd day after application, visual, read-out: Growth inhibition rate (%) Prickly sida
Excerpt: as §3, §4

SMILES	inhibition at 63 g/ha [1]	inhibition at 63 g/ha [2]	inhibition at 63 g/ha [3]	inhibition at 63 g/ha [4]	inhibition at 250 g/ha [5]	inhibition at 250 g/ha (rice (Oryza sativa L.))	inhibition at 250 g/ha [6]	inhibition at 250 g/ha [7]	inhibition at 250 g/ha [8]	inhibition at 250 g/ha [9]	inhibition at 250 g/ha [10]	inhibition at 250 g/ha (corn (Zea mays L.))	inhibition at 250 g/ha (wheat (Triticum spp.))	inhibition at 250 g/ha [11]
COCCOc1c(S(C)(=O)=O)ccc(C(=O)c2cnn(C(C)C)c2O)c1C [Compound No. 8-1, (5-Hydroxy-1-isopropyl-1H-pyrazol-4-yl)(3-(2-methoxyethoxy)-2-methyl-4-(methylsulfonyl)phenyl)ketone]	95%	95%	95%	60%	100%	80%	100%	0%	100%	100%	100%	0%	0%	40%
CCc1nn(C)c(O)c1C(=O)c1ccc(S(C)(=O)=O)c(OCCOC)c1C [Compound No. 5-3, (5-Hydroxy-1-methyl-3-ethyl-1H-pyrazol-4-yl)(3-(2-methoxyethoxy)-2-methyl-4-(methylsulfonyl)phenyl)ketone]	60%	50%	50%	20%	60%	20%	100%	0%	95%	30%	50%	20%	0%	20%
COCCOc1c(S(C)(=O)=O)ccc(C(=O)c2c(C)nn(C)c2O)c1C [Compound No. 5-2, (5-Hydroxy-1,3-dimethyl-1H-pyrazol-4-yl)(3-(2-methoxyethoxy)-2-methyl-4-(methylsulfonyl)phenyl)ketone]	80%	70%	80%	20%	60%	10%	90%	20%	100%	70%	10%	0%	0%	0%
COCCOc1c(S(C)(=O)=O)ccc(C(=O)c2c(C)nn(C)c2OC(C)OC(=O)OC)c1C (stereo not drawn) [Compound No. 1-6, 1-(4-(3-(2-Methoxyethoxy)-2-methyl-4-(methylsulfonyl)benzoyl)-1,3-dimethyl-1H-pyrazol-5-yloxy)ethyl methyl carbonate]	100%	70%	60%	30%	70%	98%	100%	0%	100%	100%	100%	0%	5%	99%
CCCn1ncc(C(=O)c2ccc(S(C)(=O)=O)c(OCCOC)c2C)c1OC(C)OC(=O)OCC (stereo not drawn) [Compound No. 3-1, Ethyl 1-(1-n-propyl-4-(3-(2-methoxyethoxy)-2-methyl-4-(methylsulfonyl)benzoyl)-1H-pyrazol-5-yloxy)ethyl carbonate]	100%	90%	95%	30%	60%	20%	40%	0%	80%	80%	60%	0%	10%	80%
COC(=O)OC(C)Oc1c(C(=O)c2ccc(S(C)(=O)=O)c(C(=O)OC)c2C)cnn1C (stereo not drawn) [Compound No. 1-2, Methyl 3-(5-(1-(methoxycarbonyloxy)ethoxy)-1-methyl-1H-pyrazole-4-carbonyl)-2-methyl-6-(methylsulfonyl)benzoate]	100%	70%	95%	40%	100%	100%	100%	70%	100%	100%	100%	0%	20%	98%
CCn1nc(C)c(C(=O)c2ccc(S(C)(=O)=O)c(OCCOC)c2C)c1O [Compound No. 6-1, (1-Ethyl-5-hydroxy-3-methyl-1H-pyrazol-4-yl)(3-(2-methoxyethoxy)-2-methyl-4-(methylsulfonyl)phenyl)ketone]	60%	80%	60%	40%	98%	100%	100%	60%	100%	80%	100%	0%	20%	80%
CCCn1ncc(C(=O)c2ccc(S(C)(=O)=O)c(OCCOC)c2C)c1O [Compound No. 7-1, (5-Hydroxy-1-n-propyl-1H-pyrazol-4-yl)(3-(2-methoxyethoxy)-2-methyl-4-(methylsulfonyl)phenyl)ketone]	30%	70%	90%	20%	90%	98%	100%	20%	100%	95%	98%	0%	40%	80%
COCCOc1c(S(C)(=O)=O)ccc(C(=O)c2cnn(C(C)C)c2OC(C)OC(=O)OC)c1C (stereo not drawn) [Compound No. 4-1, 1-(1-Isopropyl-4-(3-(2-methoxyethoxy)-2-methyl-4-(methylsulfonyl)benzoyl)-1H-pyrazol-5-yloxy)ethyl methyl carbonate]	100%	98%	70%	40%	100%	98%	100%	0%	100%	100%	100%	0%	10%	95%
